Experimental data: patent US9260439B2, “Dihydropyrrolopyrimidine derivatives” (PFIZER INC., priority 2014, dated 2016)
Where a name gives a salt, the structure may show the parent alone.

target: truncated PI3Kα (p110α/iSH2 p85α) (Homo sapiens (Human), UniProt P42336); experiment: PI3KA_Act fluorescence polarization kinase assay (Ki); format: biochemical; details: 1 mM ATP
In short: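 Ki values result from fitting fluorescence polarization signals to the Morrison equation for tight-binding competitive inhibitors. The detector was GST-Grp1 PH domain with TAMRA-PIP3, read after a 30 min room-temperature reaction of 0.5 nM truncated PI3Kα and 30 μM PIP2 at pH 7.4 in HEPES/NaCl/MgCl2/DTT/CHAPS buffer. Compounds were tested as 12-point 3-fold dilutions from 3 μM.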

Sequence of truncated PI3Kα (p110α/iSH2 p85α) (P42336 whole entry, the tested form may be a part): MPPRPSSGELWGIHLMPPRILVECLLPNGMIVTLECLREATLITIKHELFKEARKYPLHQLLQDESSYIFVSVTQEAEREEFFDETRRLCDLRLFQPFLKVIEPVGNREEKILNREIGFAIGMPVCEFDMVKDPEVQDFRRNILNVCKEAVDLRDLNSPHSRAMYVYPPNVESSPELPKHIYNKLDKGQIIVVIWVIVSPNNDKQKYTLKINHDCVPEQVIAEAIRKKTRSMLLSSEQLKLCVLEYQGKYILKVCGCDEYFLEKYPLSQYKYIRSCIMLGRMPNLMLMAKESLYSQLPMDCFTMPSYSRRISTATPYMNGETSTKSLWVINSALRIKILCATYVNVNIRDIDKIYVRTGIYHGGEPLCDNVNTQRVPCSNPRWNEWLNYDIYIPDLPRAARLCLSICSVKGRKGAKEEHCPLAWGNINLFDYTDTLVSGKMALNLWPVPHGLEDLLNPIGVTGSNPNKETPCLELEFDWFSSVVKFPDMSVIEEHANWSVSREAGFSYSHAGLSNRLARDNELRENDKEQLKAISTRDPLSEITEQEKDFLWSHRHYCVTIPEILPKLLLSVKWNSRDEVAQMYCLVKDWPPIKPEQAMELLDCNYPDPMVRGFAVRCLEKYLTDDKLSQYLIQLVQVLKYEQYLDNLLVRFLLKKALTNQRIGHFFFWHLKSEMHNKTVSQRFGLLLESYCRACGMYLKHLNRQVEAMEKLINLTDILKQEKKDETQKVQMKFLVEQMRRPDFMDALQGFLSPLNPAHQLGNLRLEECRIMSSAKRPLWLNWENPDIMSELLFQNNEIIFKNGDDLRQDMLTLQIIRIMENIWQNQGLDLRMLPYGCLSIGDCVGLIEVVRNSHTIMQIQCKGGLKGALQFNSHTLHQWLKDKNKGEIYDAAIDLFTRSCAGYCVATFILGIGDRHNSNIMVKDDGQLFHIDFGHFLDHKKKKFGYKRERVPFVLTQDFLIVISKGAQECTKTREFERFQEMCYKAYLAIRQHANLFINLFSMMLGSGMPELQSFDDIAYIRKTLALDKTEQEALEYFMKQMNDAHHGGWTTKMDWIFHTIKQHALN

Row | SMILES | PI3KA_Act Ki [nM] | Ki [nM]
1 | C[C@H]1COCCN1c1nc(-c2cnc(N)nc2)c2c(n1)N([C@@]1(C)CCN(C(=O)C(F)(F)CN)C1)CC2.Cl [Example 489, 3-amino-1-[(3S)-3-{4-(2-aminopyrimidin-5-yl)-2-[(3S)-3-methylmorpholin-4-yl]-5,6-dihydro-7H-pyrrolo[2,3-d]pyrimidin-7-yl}-3-methylpyrrolidin-1-yl]-2,2-difluoropropan-1-one hydrochloride] | <0.018 | 
2 | Cn1cc(S(=O)(=O)N2CC(N3CCc4c(-c5cnc(N)nc5)nc(N5CCOCC5)nc43)C2)cn1 [Example 178] | 0.125 | 
3 | C[C@@H](O)C(=O)N1CC[C@](C)(N2CCc3c(-c4cnc(N)nc4)nc(N4CCOCC4)nc32)C1 [Example 267, (2R)-1-{(3S)-3-[4-(2-aminopyrimidin-5-yl)-2-(morpholin-4-yl)-5,6-dihydro-7H-pyrrolo[2,3-d]pyrimidin-7-yl]-3-methylpyrrolidin-1-yl}-2-hydroxypropan-1-one] | 0.041 | 
4 | CNC(=O)N1CC[C@](C)(N2CCc3c(-c4cnc(N)nc4)nc(N4CCOC[C@@H]4C)nc32)C1 [Example 506, (3S)-3-{4-(2-aminopyrimidin-5-yl)-2-[(3S)-3-methylmorpholin-4-yl]-5,6-dihydro-7H-pyrrolo[2,3-d]pyrimidin-7-yl}-N,3-dimethylpyrrolidine-1-carboxamide] | 0.061 | 
5 | CC(C)(CN)C(=O)N1CC[C@](C)(N2CCc3c(-c4cnc(N)nc4)nc(N4CCOCC4)nc32)C1.Cl [Example 305, 3-amino-1-{(3S)-3-[4-(2-aminopyrimidin-5-yl)-2-(morpholin-4-yl)-5,6-dihydro-7H-pyrrolo[2,3-d]pyrimidin-7-yl]-3-methylpyrrolidin-1-yl}-2,2-dimethylpropan-1-one hydrochloride] | 0.036 | 
6 | C[C@]1(N2CCc3c(-c4cnc(N)nc4)nc(N4CCOCC4)nc32)CCN(C(=O)[C@H]2CCCO2)C1 [Example 372, {(3S)-3-[4-(2-aminopyrimidin-5-yl)-2-(morpholin-4-yl)-5,6-dihydro-7H-pyrrolo[2,3-d]pyrimidin-7-yl]-3-methylpyrrolidin-1-yl}[(2R)-tetrahydrofuran-2-yl]methanone] | 0.040 | 
7 | CC(=O)N1CC[C@](C)(N2CCc3c(-c4cnc(N)nc4)nc(N4CCOC[C@@H]4C)nc32)C1 [Example 469, 1-[(3S)-3-{4-(2-aminopyrimidin-5-yl)-2-[(3S)-3-methylmorpholin-4-yl]-5,6-dihydro-7H-pyrrolo[2,3-d]pyrimidin-7-yl}-3-methylpyrrolidin-1-yl]ethanone] | 0.052 | 
8 | C[C@H]1COCCN1c1nc(-c2cnc(N)nc2)c2c(n1)N([C@@]1(C)CCN(C(=O)[C@]3(C)CCN3)C1)CC2.Cl [Example 495, [(3S)-3-{4-(2-aminopyrimidin-5-yl)-2-[(3S)-3-methylmorpholin-4-yl]-5,6-dihydro-7H-pyrrolo[2,3-d]pyrimidin-7-yl}-3-methylpyrrolidin-1-yl][(2S)-2-methylazetidin-2-yl]methanone hydrochloride] | 0.031 | 
9 | CC(C)(C)OC(=O)N1CC(F)(C(=O)N2CC[C@](C)(N3CCc4c(-c5cnc(N)nc5)nc(N5CCOCC5)nc43)C2)C1 [Example 359, tert-butyl 3-({(3S)-3-[4-(2-aminopyrimidin-5-yl)-2-(morpholin-4-yl)-5,6-dihydro-7H-pyrrolo[2,3-d]pyrimidin-7-yl]-3-methylpyrrolidin-1-yl}carbonyl)-3-fluoroazetidine-1-carboxylate] | 0.128 | 
10 | C[C@H]1COCCN1c1nc(-c2cnc(N)nc2)c2c(n1)N([C@@]1(C)CCN(C(=O)[C@@H]3CCOC3)C1)CC2 [Example 499, [(3S)-3-{4-(2-aminopyrimidin-5-yl)-2-[(3S)-3-methylmorpholin-4-yl]-5,6-dihydro-7H-pyrrolo[2,3-d]pyrimidin-7-yl}-3-methylpyrrolidin-1-yl][(3R)-tetrahydrofuran-3-yl]methanone] | 0.048 | 
11 | [2H]C1([2H])OC([2H])([2H])C([2H])([2H])N(c2nc(-c3cnc(N)nc3)c3c(n2)N([C@@]2(C)CCN(C(=O)OC(C)(C)C)C2)CC3)C1([2H])[2H] [Example 238] |  | < 0.018
12 | C[C@H]1COCCN1c1nc(-c2cnc(N)nc2)c2c(n1)N([C@H]1C[C@H](NC(=O)OC(C)(C)C)C1)CC2 [Example 446, tert-butyl (trans-3-{4-(2-aminopyrimidin-5-yl)-2-[(3S)-3-methylmorpholin-4-yl]-5,6-dihydro-7H-pyrrolo[2,3-d]pyrimidin-7-yl}cyclobutyl)carbamate] | 0.433 | 
13 | C[C@H]1COCCN1c1nc(-c2cnc(N)nc2)c2c(n1)N([C@H]1[C@@H]3CN[C@H]1C3)CC2 [Example 525, 5-{7-[(1S,4S,5S)-2-azabicyclo[2.1.1]hex-5-yl]-2-[(3S)-3-methylmorpholin-4-yl]-6,7-dihydro-5H-pyrrolo[2,3-d]pyrimidin-4-yl}pyrimidin-2-amine hydrochloride] |  | 4.5
14 | C[C@]1(N2CCc3c(-c4cnc(N)nc4)nc(N4CCOCC4)nc32)CCN(C(=O)N2CCC2)C1 [Example 360, {(3S)-3-[4-(2-aminopyrimidin-5-yl)-2-(morpholin-4-yl)-5,6-dihydro-7H-pyrrolo[2,3-d]pyrimidin-7-yl]-3-methylpyrrolidin-1-yl}(azetidin-1-yl)methanone] | <0.018 | 
15 | C[C@]1(N2CCc3c(-c4cnc(N)nc4)nc(N4CCOCC4)nc32)CCN(C(=O)CN2CCC2)C1 [Example 325, 1-{(3S)-3-[4-(2-aminopyrimidin-5-yl)-2-(morpholin-4-yl)-5,6-dihydro-7H-pyrrolo[2,3-d]pyrimidin-7-yl]-3-methylpyrrolidin-1-yl}-2-(azetidin-1-yl)ethanone] | 0.058 | 
16 | Nc1ncc(-c2nc(N3CCOC[C@H]3CO)nc3c2CCN3C2CC(F)(F)C2)cn1 [Example 3, {(3R)-4-[4-(2-aminopyrimidin-5-yl)-7-(3,3-difluorocyclobutyl)-6,7-dihydro-5H-pyrrolo[2,3-d]pyrimidin-2-yl]morpholin-3-yl}methanol] | 118.146 | 
17 | [2H]C1([2H])CN(c2nc(-c3cnc(N)nc3)c3c(n2)N([C@@]2(C)CCN(C(=O)C(C)(C)NC(=O)OC(C)(C)C)C2)CC3)CC([2H])([2H])O1 [Example 234] |  | 0.509
18 | CC(C(N)=O)C(=O)N1CC[C@](C)(N2CCc3c(-c4cnc(N)nc4)nc(N4CCOCC4)nc32)C1 (single isomer, unassigned) [Example 316] | 0.019 | 
19 | C[C@]1(N2CCc3c(-c4cnc(N)nc4)nc(N4CCOCC4)nc32)CCN(C(=O)[C@H]2CCCN2)C1.Cl [Example 382, {(3S)-3-[4-(2-aminopyrimidin-5-yl)-2-(morpholin-4-yl)-5,6-dihydro-7H-pyrrolo[2,3-d]pyrimidin-7-yl]-3-methylpyrrolidin-1-yl}[(2R)-pyrrolidin-2-yl]methanone hydrochloride] | <0.018 | 
20 | C[C@H]1COCCN1c1nc(-c2cnc(N)nc2)c2c(n1)N([C@H]1C[C@H](N)C1)CC2.Cl [Example 443, 5-{7-(trans-3-aminocyclobutyl)-2-[(3S)-3-methylmorpholin-4-yl]-6,7-dihydro-5H-pyrrolo[2,3-d]pyrimidin-4-yl}pyrimidin-2-amine hydrochloride] | 0.944 | 
21 | CC1(C(=O)N2CC[C@@](C)(N3CCc4c(-c5cnc(N)nc5)nc(N5CCOCC5)nc43)C2)CC1 [Example 330, {(3R)-3-[4-(2-aminopyrimidin-5-yl)-2-(morpholin-4-yl)-5,6-dihydro-7H-pyrrolo[2,3-d]pyrimidin-7-yl]-3-methylpyrrolidin-1-yl}(1-methylcyclopropyl) methanone] | 0.152 | 
22 | CC(C)C(=O)N1CC(N2CCc3c(-c4cnc(N)nc4)nc(N4CCOC[C@@H]4C)nc32)C1 [Example 453, 1-(3-{4-(2-aminopyrimidin-5-yl)-2-[(3S)-3-methylmorpholin-4-yl]-5,6-dihydro-7H-pyrrolo[2,3-d]pyrimidin-7-yl}azetidin-1-yl)-2-methylpropan-1-one] | 0.973 | 
23 | CNS(=O)(=O)N1CC(C)(N2CCc3c(-c4cnc(N)nc4)nc(N4CCOC[C@@H]4C)nc32)C1 [Example 220] | 0.053 | 
24 | C[C@H]1COCCN1c1nc(-c2cnc(N)nc2)c2c(n1)N([C@@]1(C)CCN(C)C1)CC2 [Example 513, 5-{7-[(3S)-1,3-dimethylpyrrolidin-3-yl]-2-[(3S)-3-methylmorpholin-4-yl]-6,7-dihydro-5H-pyrrolo[2,3-d]pyrimidin-4-yl}pyrimidin-2-amine] | 0.418 | 
25 | C[C@@]1(N2CCc3c(-c4cnc(N)nc4)nc(N4CCOCC4)nc32)CCN(S(N)(=O)=O)C1 [Example 192] | 0.053 | 
26 | C[C@H]1COCCN1c1nc(-c2cnc(N)nc2)c2c(n1)N(C1CN(C(=O)C3(C)CC3)C1)CC2 [Example 458, (3-{4-(2-aminopyrimidin-5-yl)-2-[(3S)-3-methylmorpholin-4-yl]-5,6-dihydro-7H-pyrrolo[2,3-d]pyrimidin-7-yl}azetidin-1-yl)(1-methylcyclopropyl)methanone] | 0.159 | 

same assay, conditions: 1 mM ATP, hydrochloride

Row | SMILES | PI3KA_Act Ki [nM]
27 | C[C@H]1COCCN1c1nc(-c2cnc(N)nc2)c2c(n1)N([C@@]1(C)CCN(C(=O)C3(N)CCOC3)C1)CC2 (single isomer, unassigned) [Example 502, hydrochloride] | 0.064
28 | C[C@H]1COCCN1c1nc(-c2cnc(N)nc2)c2c(n1)N(C1(C)CCCNC1)CC2 (single isomer, unassigned) [Example 518, hydrochloride] | 11.285
